Data as given in patent publication EP0623024B1, “PHARMACEUTICAL BACTERIOCIN COMPOSITIONS AND THEIR USE FOR TREATING GASTROINTESTINAL DISORDERS” (APPLIED MICROBIOLOGY, INC., priority 1992, dated 1993).
Several values for one entry are separate records, joined by “and”; a condition that tells them apart may be missing. Equal entries are not always repeated. Marks after values point to notes of the source that are not given here. Ends that are not written are not given here.

What was measured:
Helicobacter pylori [1] = assay: germicidal suspension assay; conditions: nisin 0 or 100 µg/ml, 37°C
[2] = test system: Campylobacter jejuni ATCC29428; assay: germicidal suspension assay; conditions: nisin 0 or 100 µg/ml, 37°C
E. coli strain ATCC8739 = assay: nisin-citrate agar assay (growth inhibition on nutrient agar); assay type: cell-based
From the text: However, nisin in the presence of citrate is active against gram negative bacteria. […] This nisin-citrate agar assay has much more general applicability. The assay provides a method for screening potential agents other than citrate in combination with nisin for their potential properties as enhancers of nisin's inherent bactericidal activity. Examples of other organic acids in combination with nisin would include acetate, propionate, lactate, succinate, fumarate, malonate, adipate, sorbate, phosphate and ascorbate.
The nisin-citrate agar assay is performed as follows. E. coli is resuspended to an optical density of 1.0 at A600. A 100 µl sample of the bacterial suspension is spread uniformly on Trypticase Soy nutrient agar (TSA) supplemented with various concentrations of citrate (eg. 0.1%, 0.3%, 1.0%, 3.0%) and incubated for 1 hour at 37°C. A nisin stock solution and serial dilutions thereof in 0.1% bovine serum albumin (BSA), are prepared and 5 µl are taken from each and deposited onto the growing bacterial lawn. The TSA plates are then incubated for 24 hours at 37°C. After 24 hours at 37°C, E. coli grown on TSA supplemented with citrate form a confluent lawn. […] The effectiveness of nisin against the gram negative bacteria can be assessed from determining the minimum amount of nisin required to produce a clear zone of growth inhibition. As the concentration of citrate in the nutrient agar is increased, less nisin is required to inhibit the growth of E. coli, as is illustrated by the data shown in Table 6.

[3] = test system: Campylobacter jejuni ATCC29428; assay: germicidal suspension assay; assay type: cell-based; conditions: for % survival at 5 min: pH 5.0, nisin 100 µg/ml, 37°C
Helicobacter pylori [4] = assay: germicidal suspension assay; assay type: cell-based; conditions: 37°C
Escherichia coli = assay: germicidal suspension assay of chelator-enhanced nisin in acid vehicles; assay type: cell-based; conditions: for % survival at 1 min: 37°C
Protocol: The rapid activities of various chelator-enhanced nisin formulations were evaluated in acid vehicles in a germicidal suspension assay.
E. coli cells from an overnight Trypticase soy nutrient agar (TSA) were resuspended to a density measured as an absorbance of 1.0 at 600 nm in sterile ddH2O. The reaction of the cells with each of the bactericidal test formulations analyzed was started by addition of 30 µl of cells to 970 µl of test formulation. The reaction mixture was incubated at 37°C for at least 1 minute and then centrifuged in a microfuge for 1 minute. The cell pellet was washed by resuspension in 1 ml of neutralization buffer. (The neutralization buffer: 50 mM Tris-HCl, pH 7.0, 5 mM MgSO4, 20 mM CaC12, 0.1 M NaCl and 0.1% gelatin was prepared by first making Tris buffer and adjusting the pH. The salts and gelatin were then added and the solution stirred with heat until the solution was clear. The solution was then autoclaved for 20 min. The neutralization buffer was used without dilution.) The cells were centrifuged in a microfuge for 1 minute and resuspended in 1 ml of neutralization buffer. The viable count was determined by spreading 100 µl of bacterial suspension and serial dilutions thereof in neutralization buffer on nutrient agar and scoring surviving colonies after 24 h at 37°C. Percent survival relative to untreated controls was calculated from the scored values.
In Table 1 and subsequent Tables 2, 4 and 8-13 values preceded by "<" represent the percent survival figures, based on the initial concentration of viable bacteria (expressed as colony forming units (cfu) /ml) in the assayed bacterial suspension and the aliquot volume of said suspension taken for assay, corresponding to the detection of no surviving colonies.

In the case of `O=C(O)CC(O)(CC(=O)O)C(=O)O` [Citrate], the “% survival at 5 min” value (Helicobacter pylori [1]; strain ATCC 43504, 0.1% citrate adjusted to pH 5.0) is reported as 68.5^d %, the “% survival at 5 min” value (Helicobacter pylori [1]; strain ATCC 43504, 0.3% citrate adjusted to pH 5.0) is reported as 100^e % and the “% survival at 5 min” value (Helicobacter pylori [1]; strain ATCC 43579, 0.1% citrate adjusted to pH 2.5) is reported as <5.0x10^-4%. The “% survival at 5 min” value (Helicobacter pylori [1]; strain ATCC 43579, 0.1% citrate adjusted to pH 3.0) was 1.1x10^-3%, the “% survival at 5 min” value (Helicobacter pylori [1]; strain ATCC 43579, 0.1% citrate adjusted to pH 5.0) was 97.2^b % and the “% survival at 5 min” value ([2]; 0.3 % w/v citrate pH 5.0) was <6.4x10^-3%. For the same molecule, the “% survival at 5 min” value ([2]; 1.0 % w/v citrate pH 5.0) was <6.4x10^-3%.
With “nisin (ITSISLCTPGCKTGALMGCNMKTATCHCSIHVSK; also: lantibiotic nisin A: thioether rings and dehydrated residues not placed; UniProt P13068 24-57, looked up) [lanthionine-containing bacteriocin]” the “Nisin NIC (nominal inhibitory concentration of nisin minimally required to prevent growth)” value (E. coli strain ATCC8739; Trypticase Soy Agar supplemented with 0.1% citrate) was 370 µg/mL, the “Nisin NIC (nominal inhibitory concentration of nisin minimally required to prevent growth)” value (E. coli strain ATCC8739; Trypticase Soy Agar supplemented with 0.3% citrate) was 123 µg/mL and the “Nisin NIC (nominal inhibitory concentration of nisin minimally required to prevent growth)” value (E. coli strain ATCC8739; Trypticase Soy Agar supplemented with 1.0% citrate) was 13.7 µg/mL. For the same molecule, the “Nisin NIC (nominal inhibitory concentration of nisin minimally required to prevent growth)” value (E. coli strain ATCC8739; Trypticase Soy Agar supplemented with 3.0% citrate) was 0.06 µg/mL, the “Nisin NIC (nominal inhibitory concentration of nisin minimally required to prevent growth)” value (E. coli strain ATCC8739; Trypticase Soy Agar with 0% citrate) was 3,333 µg/ml and the “% survival at 5 min” value ([3]; EDTA 0) was <5.0x10^-4%. The “% survival at 5 min” value ([3]; citrate 0) was <6.4x10^-3%, the “effectiveness towards C. jejuni” value ([3]; nisin by itself) was “extremely effective” and the “% survival at 5 min” value (Helicobacter pylori [4]; strain ATCC 43504, EDTA 0, nisin 100 µg/ml, pH 5.0, incubated in presence of 20 mM acetate) was 7.03^e %. For the same molecule, the “% survival at 5 min” value (Helicobacter pylori [4]; strain ATCC 43504, citrate 0, nisin 100 µg/ml, 20 mM acetate, pH 5.0, two experiments (initial count 2.7 x 10^5 and 3.7 x 10^4 cfu/ml)) was 0.69^d % and 4.86^e %, the “% survival at 5 min” value (Helicobacter pylori [4]; strain ATCC 43504, pH 5.0, citrate 0, nisin 100 µg/ml) was 0.043% and the “% survival at 5 min” value (Helicobacter pylori [4]; strain ATCC 43504, pH 7.0, citrate 0, nisin 100 µg/ml) was 2.08%. For the same molecule, the “% survival at 5 min” value (Helicobacter pylori [4]; strain ATCC 43526, pH 7.0, EDTA 0, nisin 100 µg/ml) was 5.88%, the “% survival at 5 min” value (Helicobacter pylori [4]; strain ATCC 43579, citrate 0, nisin 100 µg/ml, 20 mM acetate, pH 5.0, average of 5 experiments) was 0.30^c % and the “% survival at 5 min” value (Helicobacter pylori [4]; strain ATCC 43579, citrate 0, nisin 100 µg/ml, 20 mM acetate, pH 5.0, single experiment) was 8.6x10^-3 ^e %. The “% survival at 5 min” value (Helicobacter pylori [4]; strain ATCC 43579, nisin 10 µg/ml, without or with 0.1% citrate pH 5.0) was 1.41%, the “% survival at 5 min” value (Helicobacter pylori [4]; strain ATCC 43579, nisin 30 µg/ml, without or with 0.1% citrate pH 5.0) was 0.39% and the “% survival at 5 min” value (Helicobacter pylori [4]; strain ATCC 43579, nisin 100 µg/ml, without or with 0.1% citrate pH 5.0) was 0.085%. The “% survival at 5 min” value (Helicobacter pylori [4]; strain ATCC 43579, nisin 300 µg/ml, without or with 0.1% citrate pH 5.0) was 0.0056%, the “% survival at 5 min” value (Helicobacter pylori [4]; strain ATCC 43579, pH 5.0, EDTA 0, nisin 100 µg/ml) was 4.7% and the “% survival at 5 min” value (Helicobacter pylori [4]; strain ATCC 43579, pH 5.0, citrate 0, nisin 100 µg/ml) was 9.62%. For the same molecule, the “% survival at 5 min” value (Helicobacter pylori [4]; strain ATCC 43579, pH 7.0, citrate 0, nisin 100 µg/ml) was 0.78%, the “% survival at 1 min” value (Escherichia coli; 0.1 % w/v acetate pH 3.5, nisin 100 µg/ml and/or EDTA 1.0 mM, or acetate alone) was 9.6% and the “% survival at 1 min” value (Escherichia coli; 0.1 % w/v lactate pH 3.5, nisin 100 µg/ml and/or EDTA 1.0 mM, or lactate alone) was 4.4%. For the same molecule, the “% survival at 1 min” value (Escherichia coli; 0.1 % w/v succinate pH 3.5, nisin 100 µg/ml and/or EDTA 1.0 mM, or succinate alone) was 18.3%, the “% survival at 1 min” value (Escherichia coli; 0.3 % w/v acetate pH 3.5, nisin 100 µg/ml and/or EDTA 1.0 mM, or acetate alone) was 70% and the “% survival at 1 min” value (Escherichia coli; 0.3 % w/v lactate pH 3.5, nisin 100 µg/ml and/or EDTA 1.0 mM, or lactate alone) was 0.24%. The “% survival at 1 min” value (Escherichia coli; 0.3 % w/v succinate pH 3.5, nisin 100 µg/ml and/or EDTA 1.0 mM, or succinate alone) was 66.6%, the “% survival at 1 min” value (Escherichia coli; 1.0 % w/v acetate pH 3.5, nisin 100 µg/ml and/or EDTA 1.0 mM, or acetate alone) was 100% and the “% survival at 1 min” value (Escherichia coli; 1.0 % w/v lactate pH 3.5, nisin 100 µg/ml and/or EDTA 1.0 mM, or lactate alone) was 17.8%. The “% survival at 1 min” value (Escherichia coli; 1.0 % w/v succinate pH 3.5, nisin 100 µg/ml and/or EDTA 1.0 mM, or succinate alone) was 83.4%, the “% survival at 1 min” value (Escherichia coli; 3.0 % w/v acetate pH 3.5, nisin 100 µg/ml and/or EDTA 1.0 mM, or acetate alone) was 100% and the “% survival at 1 min” value (Escherichia coli; 3.0 % w/v lactate pH 3.5, nisin 100 µg/ml and/or EDTA 1.0 mM, or lactate alone) was 26.7%. The “% survival at 1 min” value (Escherichia coli; 3.0 % w/v succinate pH 3.5, nisin 100 µg/ml and/or EDTA 1.0 mM, or succinate alone) was 28.4%, the “survival of E. coli on exposure to the agent by itself” value (Escherichia coli; each agent by itself) was “unaffected” and the “% survival at 1 min” value (Escherichia coli; pH 2.0, 20 mM Na acetate buffer, nisin 100 µg/ml and/or EDTA 1.0 mM) was 0.28%. For the same molecule, the “% survival at 1 min” value (Escherichia coli; pH 2.5, 20 mM Na acetate buffer, nisin 100 µg/ml and/or EDTA 1.0 mM) was 3.37%, the “% survival at 1 min” value (Escherichia coli; pH 3.0, 20 mM Na acetate buffer, nisin 100 µg/ml and/or EDTA 1.0 mM) was 4.43% and the “% survival at 1 min” value (Escherichia coli; pH 3.5, 20 mM Na acetate buffer, nisin 100 µg/ml and/or EDTA 1.0 mM) was 100%. For the same molecule, the “% survival at 1 min” value (Escherichia coli; pH 4.0, 20 mM Na acetate buffer, nisin 100 µg/ml and/or EDTA 1.0 mM) was 100%.
